Key:
[1] = test system: Bronchial epithelial cells; assay: BioMAP BE4T system (IL-4 + TNF-a), scoring of readout parameters; assay type: cell-based, human; set-up: key: 1 = modulated in desired direction, 0 = not (−1 = opposite); conditions: for PAI-1 score: desired change decrease; for EGFR score: desired no change or increase
Experimental: In the “BE4T” system, bronchial epithelial cells, usually primary human bronchial epithelial cells, are cultured in the presence of TNF-α and IL-4.
(§1) Each screened compound is scored according to its modulation of the selected readout parameters. Compounds receive a positive score (score of 1) or negative score (score of 0) for each readout parameter set forth in Table 2 that is modulated in the desired direction. […] Parameters may be penalized by making the positive score a −1 for parameters where regulation is opposite to the desired direction.
(§2) Cell culture. Human umbilical vein endothelial cells (HUVEC) were pooled from multiple donors, cultured according to standard methods, and plated into microtiter plates at passage 4. Cell culture medium for all systems containing HUVEC included hydrocortisone. Coronary artery smooth muscle cells (CASM3C) and umbilical artery smooth muscle cells (HSM3C) were cultured according to standard procedures. Peripheral blood mononuclear cells (PBMC) were prepared from buffy coats from normal human donors according to standard methods. Monocyte-derived macrophages were differentiated in the presence of M-CSF for 7 d according to standard procedures. Human dermal fibroblasts were pooled from 3 donors, cultured according to standard methods, and plated confluent 24 h before stimulation. Cell culture medium for all systems containing fibroblasts and keratinocytes contained low hydrocortisone. Epidermal keratinocytes and bronchial epithelial cells from 3 donors were cultured according to standard procedures and pooled when plated into microtiter plates. For keratinocyte-fibroblast co-cultures, cells were plated simultaneously 24 h before stimulation. For bronchial epithelial cell-fibroblast co-cultures, fibroblasts were plated and cultured 48 before addition of epithelial cells, then cultured another 24 hr before stimulation. Concentrations/amounts of agents added to confluent microtiter plates to build each system: cytokines (IL-1β, 1 ng/ml; TNF-α, 5 ng/ml; IFN-γ, 20 ng/ml; IL-4, 5 ng/ml), activators (SAg, 20 ng/ml; histamine, 10 μM; zymosan, 10 μg/ml; or LPS, 2 ng/ml), growth factors (TGF-β, 5 ng/ml; EGF, bFGF, and PDGF-BB, 10 ng/ml), and PBMC (7.5×10^4 cells/well) or macrophages (3.5×10^4 cells/well).
(§3) Compounds. Compounds were prepared in the solvent directed, added 1 hr before stimulation of the cells, and were present during the 24 hr stimulation period for the measurement of parameters listed in Table 2. For proliferation, compounds added 1 hr before stimulation of the cells with cytokines, and were present during the 48 to 72 hr assay. If prepared in DMSO, the final concentration of solvent was 0.1% or less.
(§4) Readout Parameter Measurements. The levels of readout parameters were measured by ELISA. Briefly, microtiter plates are treated, blocked, and then incubated with primary antibodies or isotype control antibodies (0.01-0.5 microg/ml) for 1 hr. After washing, plates were incubated with a peroxidase-conjugated anti-mouse IgG secondary antibody or a biotin-conjugated anti-mouse IgG antibody for 1 hr followed by streptavidin-HRP for 30 min. Plates were washed and developed with TMB substrate and the absorbance (OD) was read at 450 nm (subtracting the background absorbance at 650 nm). Quantitation of TNF-alpha or PGE2 in the LPS system was done using a commercially available kit according to the manufacturer's directions. Proliferation of endothelial cells (HUVEC and CAEC), smooth muscle cells (SMC and CASMC), and PBMC (T cells) was quantitated by Alamar Blue reduction or SRB.
(§5) Data analysis. Mean OD values for each parameter were calculated for compounds run in duplicate. The mean value (or single well OD value) for each parameter in a treated sample was then divided by the mean value from an appropriate control to generate a ratio. All ratios were then log10 transformed. 95% significance prediction envelopes (grey shading in Figures) were calculated for historical controls.

[2] = test system: Peripheral Blood Mononuclear Cells + Umbilical Vein Endothelial Cells; assay: BioMAP LPS system (TLR4), scoring of readout parameters; assay type: cell-based, human; conditions: LPS (by position); desired change decrease
Excerpt: as §1, §2, §3, §4, §5

[3] = test system: Bronchial epithelial cells; assay: BioMAP BE3C system (IL-1β + TNF-α + IFN-γ), scoring of readout parameters; assay type: cell-based, human; conditions: for PAI-1 score: desired change decrease
Excerpt: as §1, §2, §3, §4, §5

Fibroblasts [4] = assay: BioMAP HDF3CGF system (IL-1β + TNF-α + IFN-γ + EGF + bFGF + PDGFbb), scoring of readout parameters; assay type: cell-based, human; conditions: for PAI-1 score: desired change decrease; for MMP-1 score: desired change increase; for EGFR score: desired no change or increase
Experimental: In the “HDF-3CGF” system, dermal fibroblast cells, usually primary human dermal fibroblast cells are cultured alone or in the presence of lung epithelial cells, usually primary human lung epithelial cells, with two or more factors selected from: TNF, IL-1, IFNγ, EGF, bFGF+HSPG (heparan sulfate proteoglycan), and PDGFbb. In some embodiments three or more factors are present, four or more, five or more, or all six factors are present.
Human neonatal dermal fibroblasts (HDFn) or adult lung fibroblasts (HDFp) or fibroblasts from tissues such as liver, heart, or kidney are used. Cells are cultured at 3×10^4 cells/ml in DMEM/F12 (50/50) from Cellgro, supplemented with LSGS kit (from Cascade Biologics); fetal bovine serum, 2% v/v, hydrocortisone 100 nM, human epidermal growth factor 10 ng/ml, basic fibroblast growth factor 3 ng/ml and heparin 10 μg/ml, and penicillin/streptomycin amphotericin B solution (PSA), until confluency. Medium is replaced with DMEM/F12 with only penicillin/streptomycin amphotericin B solution (PSA), then 24 hours later, the following are applied:
After another 24, 48 or 72 hours incubation (37° C., 5% CO2) the cultures are evaluated for the following parameters: ICAM, VCAM, CD40, CD90, IP-10, MCP-1, Collagen I, Mig, m-CSF, TIMP-2, PAI-I, IL-8, Collagen III, HLA-DR, MMP-1, MMP-9, proliferation, TGF-b1, eotaxin-3, decorin, alpha-SMC, MLCK, I-TAC, EGFR, TIMP-1.
Cell culture. […] Human dermal fibroblasts were pooled from 3 donors, cultured according to standard methods, and plated confluent 24 h before stimulation. Cell culture medium for all systems containing fibroblasts and keratinocytes contained low hydrocortisone. […] Concentrations/amounts of agents added to confluent microtiter plates to build each system: cytokines (IL-1β, 1 ng/ml; TNF-α, 5 ng/ml; IFN-γ, 20 ng/ml; IL-4, 5 ng/ml), activators (SAg, 20 ng/ml; histamine, 10 μM; zymosan, 10 μg/ml; or LPS, 2 ng/ml), growth factors (TGF-β, 5 ng/ml; EGF, bFGF, and PDGF-BB, 10 ng/ml), and PBMC (7.5×10^4 cells/well) or macrophages (3.5×10^4 cells/well).

Fibroblasts [5] = assay: BioMAP HDF3CT system (IL-1β + TNF-α + IFN-γ + TGF-β), scoring of readout parameters; assay type: cell-based, human
Excerpt: as §1, §2, §3, §4, §5

Fibroblasts [6] = assay: BioMAP HDFT system (TGF-β), scoring of readout parameters; assay type: cell-based, human; set-up: key to PAI-1 score: 1 = modulated in desired direction, 0 = not (no penalties applied); conditions: HDFT; desired change decrease
Excerpt: as §1
(§6) Compounds were first selected to inhibit PAI-1 in the HDFT as an indication of TBF-b signaling inhibition without being cytotoxic. […] Blank spots in Table 3 were where parameter was not assayed. Penalties were not applied for this scoring.
as §2, §3, §4
Data analysis. Mean OD values for each parameter were calculated for compounds run in duplicate. The mean value (or single well OD value) for each parameter in a treated sample was then divided by the mean value from an appropriate control to generate a ratio.

[7] = test system: Umbilical Vein Endothelial Cells; assay: BioMAP 3C system (IL-1β + TNF-α + IFN-γ), scoring of readout parameters; assay type: cell-based, human; conditions: for HLA-DR score: desired change decrease; for uPAR score: desired change increase
Excerpt: as §1, §2, §3, §4, §5

human primary cells = assay: Total score for desired parameter modulation over the BioMAP systems of Table 1; assay type: cell-based; conditions: penalties not applied
Excerpt: as §1
The relative importance of each parameter may be weighted by the screener to select those parameters of greatest interest for a particular application.
as §6
BioMAP Systems are designed to model complex human disease biology in a practical in vitro format. This is achieved by stimulating human primary cells (single cell type or defined mixtures of cell types) such that multiple disease-relevant signaling pathways are simultaneously active. The choice of cell types and stimulations is guided by the knowledge of disease biology and mechanisms. Incorporating appropriate cell types and stimulating signaling pathways relevant to disease states allows association of biological activities detected in BioMAP Systems with disease processes. Drug effects are then recorded by measuring biologically meaningful protein readouts that provide coverage of biological space of interest (e.g., inflammation, tissue remodeling) and allow discrimination between different drug classes tested.
as §2, §3
Readout Parameter Measurements. The levels of readout parameters were measured by ELISA.

[8] = PMID 17023731, PMID 8421998; cited from earlier work

Compound | uPA score [1] | PAI-1 score [1] | EGFR score [1] | TF score [2] | HLA-DR score [3] | MMP-1 score [3] | PAI-1 score [3] | PAI-1 score (Fibroblasts [4]) | MMP-1 score (Fibroblasts [4]) | EGFR score (Fibroblasts [4]) | MMP-1 score (Fibroblasts [5]) | PAI-1 score (Fibroblasts [6]) | HLA-DR score [7] | uPAR score [7] | Score (Fraction correctly modulated parameters out of 45-58 total) (human primary cells) | anti-fibrotic activity [8]
Cc1[nH]ccc2c1[nH]c1cc(=O)ccc12 [Harmol] | 0 | 0 | 0 | 1 | 0 | 0 | 1 | 1 | 0 | 0 | 0 | 1 | 0 | 0 | 0.29 | 
COc1cc(/C=C/C(=O)N2CCC=CC2=O)cc(OC)c1OC [Piperlongumine] | 0 | 0 | 0 | 1 | 0 | 0 | 0 | 1 | 0 | 0 | 0 | 1 | 0 | 0 | 0.47 | 
C=C(NC(=O)C(=C)NC(=O)c1csc(C2=N[C@@H]3c4csc(n4)[C@H]4NC(=O)c5csc(n5)[C@H]([C@](C)(O)[C@@H](C)O)NC(=O)[C@H]5CSC(=N5)/C(=C/C)NC(=O)[C@H]([C@@H](C)O)NC(=O)c5csc(n5)[C@]3(CC2)NC(=O)[C@H](C)NC(=O)C(=C)NC(=O)[C@H](C)NC(=O)[C@H]([C@@H](C)CC)N[C@@H]2C=Cc3c([C@H](C)O)cc(nc3[C@H]2O)C(=O)O[C@@H]4C)n1)C(N)=O [Thiostrepton] | 0 | 0 | 1 | 1 | 0 | 0 | 0 | 1 | 0 | 0 | 0 | 1 | 0 | 0 | 0.42 | 
Cc1cc(C2CCCCC2)n(O)c(=O)c1.NCCO [Ciclopirox Ethanolamine] | 0 | 0 | 1 | 0 | 0 | 0 | 0 | 1 | 0 | 0 | 0 | 1 | 0 | 0 | 0.31 | 
CC(=O)S[C@@H]1CC2=CC(=O)CC[C@]2(C)[C@H]2CC[C@@]3(C)[C@@H](CC[C@@]34CCC(=O)O4)[C@H]12 [spironolactone] |  |  |  |  |  |  |  |  |  |  |  |  |  |  | high scores | known anti-fibrotic activity

Source: patent publication US20100093613A1, “METHODS FOR IDENTIFYING AGENTS AND THEIR USE FOR THE PREVENTION OR STABILIZATION OF FIBROSIS” (priority 2007, published 2010)
